Counter-ions that a name gives are not always drawn.
melting point [°C]	Structure (SMILES)
115	CCC[C@H](NC(=O)[C@@H](O)c1cc(F)cc(F)c1)C(=O)Nc1nc(C)c(-c2ccccc2COC2CCCCC2)s1 [compound 57, (2S)-N-(5-{2-[(cyclohexyloxy)methyl]phenyl}-4-methyl-1,3-thiazol-2-yl)-2-{[(2S)-2-(3,5-difluorophenyl)-2-hydroxyacetyl]amino}pentanamide]
172	O=C(Cc1cc(F)cc(F)c1)NCC(=O)Nc1ncc(-c2ccccc2COC2CCCCC2)s1 [compound 15, N-{2-[(5-{2-[(cyclohexyloxy)methyl]phenyl}-1,3-thiazol-2-yl)amino]-2-oxoethyl}-2-(3,5-difluorophenyl)-acetamide]
149	COC1CCC(OCc2ccccc2-c2cnc(NC(=O)[C@H](C)NC(=O)Cc3cc(F)cc(F)c3)s2)CC1 (stereo partly drawn) [compound 73, (2S)-2-{[2-(3,5-difluorophenyl)acetyl]amino}-N-[5-(2-{[(4-methoxycyclohexyl)oxy]methyl}phenyl]-1,3-thiazol-2-yl}propanamide]
126	CC(NC(=O)Cc1cc(F)cc(F)c1)C(=O)Nc1ncc(-c2ccccc2COC2CCCCC2)s1 (stereo not shown) [Compound No. 2, N-(5-{2-[(cyclohexyloxy)methyl]phenyl}-1,3-thiazol-2-yl)-2-{[2-(3,5-difluorophenyl)acetyl]amino}propanamide]
152	Cc1nc(NC(=O)C(C)NC(=O)Cc2cc(F)cc(F)c2)sc1-c1ccccc1COC1CCCCC1 (stereo not shown) [compound 12, N-(5-{2-[(cyclohexyloxy)methyl]phenyl}-4-methyl-1,3-thiazol-2-yl)-2-{[2-(3,5-difluorophenyl)acetyl]-amino}propanamide]
186	CCC[C@H](NC(=O)Cc1cc(F)cc(F)c1)C(=O)Nc1nc(C)c(-c2ccccc2COC2CCN(C)CC2)s1 (as salt: phosphate) [compound 68, (2S)-N-(5-{2-[(N-methylpiperidin-4-yloxy)methyl]-phenyl}-4-methyl-1,3-thiazol-2-yl)-2-{[2-(3,5-difluorophenyl)acetyl]amino}pentanamide]
85	Cc1nc(NC(=O)[C@H](C)NC(=O)Cc2cc(F)cc(F)c2)sc1-c1ccccc1COC1CCCCC1 [compound 23, (2S)-N-(5-{2-[(cyclohexyloxy)methyl]phenyl}-4-methyl-1,3-thiazol-2-yl)-2-{[2-(3,5-difluorophenyl)-acetyl]amino}propanamide]
73	CC(C)(C)[C@H](NC(=O)Cc1cc(F)cc(F)c1)C(=O)Nc1ncc(-c2ccccc2COC2CCCCC2)s1 [compound 37, (2S)-N-(5-{2-[(cyclohexyloxy)methyl]phenyl}-1,3-thiazol-2-yl)-2-{[2-(3,5-difluorophenyl)acetyl]amino}-3,3-dimethylbutanamide]

The remaining lines, values behind:

Structure (SMILES)	melting point [°C]
CCC[C@H](NC(=O)C(F)c1cc(F)cc(F)c1)C(=O)Nc1ncc(-c2ccccc2COC2CCCCC2)s1 (stereo partly drawn) [compound 67, (2S)-N-(5-{2-[(cyclohexyloxy)methyl]phenyl}-1,3-thiazol-2-yl)-2-{[2-(3,5-difluorophenyl)-2-fluoroacetyl]amino}pentanamide]	91
C[C@H](NC(=O)Cc1ccc(F)cc1)C(=O)Nc1ncc(-c2ccccc2COC2CCCCC2)s1 [compound 20, (2S)-N-(5-{2-[(cyclohexyloxy)methyl]phenyl}-1,3-thiazol-2-yl)-2-{[2-(4-fluorophenyl)acetyl]amino}-propanamide]	70
CC(C)OCc1ccccc1-c1cnc(NC(=O)[C@H](C)NC(=O)Cc2cc(F)cc(F)c2)s1 [compound 22, (2S)-2-{[2-(3,5-difluorophenyl)acetyl]amino}-N-{5-[2-(isopropoxymethyl)phenyl]-1,3-thiazol-2-yl}propanamide]	136
CCC[C@H](NC(=O)C(C)c1cc(F)cc(F)c1)C(=O)Nc1ncc(-c2ccccc2COC2CCCCC2)s1 (stereo partly drawn) [Compound No. 58, (2S)-N-(5-{2-[(cyclohexyloxy)methyl]phenyl}-1,3-thiazol-2-yl)-2-{[2-(3,5-difluorophenyl)propanoyl]-amino}pentanamide]	88
COc1cccc(CC(=O)N[C@@H](C)C(=O)Nc2ncc(-c3ccccc3COC3CCCCC3)s2)c1 [compound 34, (2S)-N-(5-{2-[(cyclohexyloxy)methyl]phenyl}-1,3-thiazol-2-yl)-2-{[2-(3-methoxyphenyl)acetyl]amino}-propanamide]	94
C[C@H](NC(=O)[C@@H](O)c1cc(F)cc(F)c1)C(=O)Nc1ncc(-c2ccccc2COC2CCCCC2)s1 [Compound No. 51, (2S)-N-(5-{2-[(cyclohexyloxy)methyl]phenyl}-1,3-thiazol-2-yl)-2-{[(2S)-2-(3,5-difluorophenyl)-2-hydroxyacetyl]amino}propanamide]	159
CC(NC(=O)Cc1ccccc1)C(=O)Nc1ncc(-c2ccccc2COC2CCCCC2)s1 (stereo not shown) [compound 11, N-(5-{2-[(cyclohexyloxy)methyl]phenyl}-1,3-thiazol-2-yl}-2-[(2-phenylacetyl)amino]propanamide]	162
C[C@H](NC(=O)[C@@H](F)c1cc(F)cc(F)c1)C(=O)Nc1ncc(-c2ccccc2COC2CCCCC2)s1 [Compound No. 66, (2S)-N-(5-{2-[(cyclohexyloxy)methyl]phenyl}-1,3-thiazol-2-yl)-2-{[(2S)-2-(3,5-difluorophenyl)-2-fluoroacetyl]amino}propanamide]	158
C[C@H](NC(=O)Cc1cc(F)cc(F)c1)C(=O)Nc1ncc(-c2ccccc2CSC2CCCCC2)s1 [compound 54, (2S)-N-(5-{2-[(cyclohexylsulfanyl)methyl]phenyl}-1,3-thiazol-2-yl)-2-{[2-(3,5-difluorophenyl)acetyl]-amino}propanamide]	91.6
Cc1cccc(CC(=O)N[C@@H](C)C(=O)Nc2ncc(-c3ccccc3COC3CCCCC3)s2)c1 [compound 16, (2S)-N-(5-{2-[(cyclohexyloxy)methyl]phenyl}-1,3-thiazol-2-yl)-2-{[2-(3-methylphenyl)acetyl]amino}-propanamide]	98
C[C@H](NC(=O)Cc1cc(F)cc(F)c1)C(=O)Nc1ncc(-c2ccc(COCC3CCCCC3)cc2)s1 [compound 46, (2S)-N-(5-{4-[(cyclohexylmethoxy)methyl]phenyl}-1,3-thiazol-2-yl)-2-{[2-(3,5-difluorophenyl)acetyl]-amino}propanamide]	166
CCC[C@H](NC(=O)C(F)(F)c1cc(F)cc(F)c1)C(=O)Nc1ncc(-c2ccccc2COC2CCCCC2)s1 [compound 74, (2S)-N-(5-{2-[(cyclohexyloxy)methyl]phenyl}-1,3-thiazol-2-yl)-2-{[2-(3,5-difluorophenyl)-2,2-difluoroacetyl]amino}pentanamide]	68
C[C@H](NC(=O)[C@H](F)c1cc(F)cc(F)c1)C(=O)Nc1ncc(-c2ccccc2COC2CCCCC2)s1 (racemic) [Compound No. 65, (2S)-N-(5-{2-[(cyclohexyloxy)methyl]phenyl}-1,3-thiazol-2-yl)-2-{[(2R)-2-(3,5-difluorophenyl)-2-fluoroacetyl]amino}propanamide]	78
C[C@H](NC(=O)C(=O)c1cc(F)cc(F)c1)C(=O)Nc1ncc(-c2ccccc2COC2CCCCC2)s1 [Compound No. 61, (2S)-N-(5-{2-[(cyclohexyloxy)methyl]phenyl}-1,3-thiazol-2-yl)-2-{[2-(3,5-difluorophenyl)-2-oxoacetyl]-amino}propanamide]	78

Source: US7288659B2, “Acylaminothiazole derivatives, their preparation and therapeutic use” (Sanofi-Aventis, priority 2001, dated 2007)
